Patent US20030032655A1, “Heme oxygenase-1 inducers or induction enhancers” (priority 2000, published 2003)

Columns and labels:
[1] = system: HO-1 protein; conditions: after injection of autologous arterial blood; compound i.v. 2 days; basilar arterial walls, day 2
Text: The same animal model as in Example 1 was used to study changes in HO-1 protein expression level after the same treatment as shown in Example 1. The changes in protein expression level were detected by Coomassie staining and Western blotting, as described in the abovementioned reference. In this figure, the upper and lower panels show the results of Coomassie staining and Western blotting, respectively. Each of the lanes shown in FIG. 2 has the same definition as the corresponding sample in FIG. 1.

[2] = system: HO-1 mRNA; conditions: blood i.c. + compound i.v. 1 mg/kg/min continuously for 2 days; basilar arterial walls, day 2; vs blood i.c.+saline i.v.
Description: The preparation of rat cerebral vasospasm model and the determination of HO-1 mRNA expression level were performed according to a documented method (see The Journal of Clinical Investigation, Vol. 104, No. 1, July 1999).
Each single hemorrhage model was injected with 0.5 ml autologous arterial blood into its cisterna magna. […] After administration, the level of mRNA expressed in basilar arterial walls was determined on day 2 using a quantitative RT-PCR technique.
It is for this reason that the mRNA expression level was determined on day 2.
All data were expressed as mean±SEM. The expression level of HO-2 was used as a denominator in calculating the ratio because the expression level of HO-2 was not assumed to change appreciably in this model and therefore, when used as a denominator, would enable changes in HO-1 expression level to be objectively evaluated while ignoring individual differences. […] The data were statistically processed according to variance analysis. A single asterisk (*) denotes a statistically significant difference from “saline i.c.” at p<0.05 level and two asterisks (**) denote a statistically significant difference from “blood i.c.+saline i.v.” at p<0.01 level.

[3] = system: delayed cerebral vasospasm
Description: The same model as in Example 1 was used to study changes over time in basilar artery diameter. The determination of basilar artery diameter was performed as described in the above-mentioned reference. That is, the diameter was measured angiographically on days 1 to 7 and expressed as a % change from the original diameter (% change before treatment was set to 0).
All data were expressed as mean±SEM.
The data was statistically processed such that intragroup comparison was performed by paired t-test and intergroup comparison was performed according to variance analysis.

CC(CNC(=O)c1cccnc1)NC(=O)c1cccnc1 (stereo not shown) [1,2-bis(nicotinamide)propane]
HO-1 protein induction [1]: causes or enhances HO-1 protein induction
HO-1 mRNA expression level (HO-1/HO-2 ratio) [2]: significant increase in HO-1 mRNA expression level
delayed cerebral vasospasm (% change in basilar artery diameter) ([3]; blood i.c. + compound i.v. continuously for 7 days, angiography days 1 to 7): significant amelioration of delayed cerebral vasospasm
diameter of cerebral blood vessels in the absence of hemorrhage ([3]; saline i.c. + compound i.v. continuously for 7 days): not affected
